Measurements: EP4768487A1, “FUSED LACTAM RING COMPOUND AND USE THEREOF” (Chengdu Zenitar Biomedical Technology Co., Ltd., priority 2023, dated 2025)

Assays:
PARP-5A = molecular target: T1, PARP-5A (Homo sapiens, UniProt O95271); assay: biochemical
T1 sequence (O95271 1-1327): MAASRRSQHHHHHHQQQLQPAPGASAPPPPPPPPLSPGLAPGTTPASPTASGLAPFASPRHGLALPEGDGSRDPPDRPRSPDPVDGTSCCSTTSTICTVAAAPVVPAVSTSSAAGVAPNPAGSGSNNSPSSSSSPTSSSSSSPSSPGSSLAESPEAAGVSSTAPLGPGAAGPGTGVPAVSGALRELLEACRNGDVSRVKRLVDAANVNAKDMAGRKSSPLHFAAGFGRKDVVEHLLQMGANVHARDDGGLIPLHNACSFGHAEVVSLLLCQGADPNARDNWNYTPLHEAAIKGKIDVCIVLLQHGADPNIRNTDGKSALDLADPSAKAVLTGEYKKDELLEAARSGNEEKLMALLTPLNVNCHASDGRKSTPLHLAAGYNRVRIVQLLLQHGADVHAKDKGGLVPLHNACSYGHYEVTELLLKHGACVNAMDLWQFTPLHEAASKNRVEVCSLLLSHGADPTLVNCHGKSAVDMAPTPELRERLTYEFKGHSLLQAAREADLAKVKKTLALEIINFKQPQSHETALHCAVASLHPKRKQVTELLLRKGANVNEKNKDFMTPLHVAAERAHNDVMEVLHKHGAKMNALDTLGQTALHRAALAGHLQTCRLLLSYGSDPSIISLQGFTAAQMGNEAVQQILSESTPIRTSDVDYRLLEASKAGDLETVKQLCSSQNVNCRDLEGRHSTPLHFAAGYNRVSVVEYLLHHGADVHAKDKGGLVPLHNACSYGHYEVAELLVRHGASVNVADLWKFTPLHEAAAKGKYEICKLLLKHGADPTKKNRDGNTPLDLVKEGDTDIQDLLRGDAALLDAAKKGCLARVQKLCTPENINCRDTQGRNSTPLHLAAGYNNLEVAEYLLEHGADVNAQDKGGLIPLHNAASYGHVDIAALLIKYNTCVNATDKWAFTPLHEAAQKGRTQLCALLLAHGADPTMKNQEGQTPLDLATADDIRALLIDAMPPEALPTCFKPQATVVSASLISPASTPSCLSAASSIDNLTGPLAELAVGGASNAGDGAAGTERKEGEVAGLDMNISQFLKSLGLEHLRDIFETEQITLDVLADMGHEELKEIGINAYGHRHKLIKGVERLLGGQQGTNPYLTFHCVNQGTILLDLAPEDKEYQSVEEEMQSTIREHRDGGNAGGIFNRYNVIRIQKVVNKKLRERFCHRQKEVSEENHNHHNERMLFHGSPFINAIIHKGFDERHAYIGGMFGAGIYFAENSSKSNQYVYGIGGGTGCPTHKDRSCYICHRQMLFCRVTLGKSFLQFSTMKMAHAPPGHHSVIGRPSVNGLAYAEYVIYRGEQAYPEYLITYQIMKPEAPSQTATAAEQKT

PARP-7 = molecular target: T2, PARP-7 (Homo sapiens, UniProt Q7Z3E1); assay: Assay for enzymatic selectivity for PARP family: PARP-7
T2 sequence (Q7Z3E1 1-657): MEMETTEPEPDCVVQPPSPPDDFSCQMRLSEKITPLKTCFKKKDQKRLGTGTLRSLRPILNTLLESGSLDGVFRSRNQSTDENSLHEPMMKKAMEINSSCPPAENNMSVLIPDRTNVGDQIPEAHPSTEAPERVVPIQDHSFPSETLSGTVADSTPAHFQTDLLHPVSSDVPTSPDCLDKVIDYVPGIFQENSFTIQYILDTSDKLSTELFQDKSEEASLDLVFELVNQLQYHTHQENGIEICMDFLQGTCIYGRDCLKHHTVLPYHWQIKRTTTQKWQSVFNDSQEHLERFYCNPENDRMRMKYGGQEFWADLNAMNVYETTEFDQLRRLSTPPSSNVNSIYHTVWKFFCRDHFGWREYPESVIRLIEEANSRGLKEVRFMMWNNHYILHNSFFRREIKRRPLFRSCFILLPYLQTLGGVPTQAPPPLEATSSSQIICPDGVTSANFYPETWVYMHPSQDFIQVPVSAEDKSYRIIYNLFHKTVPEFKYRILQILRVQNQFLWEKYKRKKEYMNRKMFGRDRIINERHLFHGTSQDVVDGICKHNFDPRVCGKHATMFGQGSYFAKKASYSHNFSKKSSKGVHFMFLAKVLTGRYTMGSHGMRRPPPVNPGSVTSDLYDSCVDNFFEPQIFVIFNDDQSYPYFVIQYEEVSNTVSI

PARP-12 = molecular target: T3, PARP-12 (Homo sapiens, UniProt Q9H0J9); assay: Assay for enzymatic selectivity for PARP family: PARP-12
T3 sequence (Q9H0J9 1-701): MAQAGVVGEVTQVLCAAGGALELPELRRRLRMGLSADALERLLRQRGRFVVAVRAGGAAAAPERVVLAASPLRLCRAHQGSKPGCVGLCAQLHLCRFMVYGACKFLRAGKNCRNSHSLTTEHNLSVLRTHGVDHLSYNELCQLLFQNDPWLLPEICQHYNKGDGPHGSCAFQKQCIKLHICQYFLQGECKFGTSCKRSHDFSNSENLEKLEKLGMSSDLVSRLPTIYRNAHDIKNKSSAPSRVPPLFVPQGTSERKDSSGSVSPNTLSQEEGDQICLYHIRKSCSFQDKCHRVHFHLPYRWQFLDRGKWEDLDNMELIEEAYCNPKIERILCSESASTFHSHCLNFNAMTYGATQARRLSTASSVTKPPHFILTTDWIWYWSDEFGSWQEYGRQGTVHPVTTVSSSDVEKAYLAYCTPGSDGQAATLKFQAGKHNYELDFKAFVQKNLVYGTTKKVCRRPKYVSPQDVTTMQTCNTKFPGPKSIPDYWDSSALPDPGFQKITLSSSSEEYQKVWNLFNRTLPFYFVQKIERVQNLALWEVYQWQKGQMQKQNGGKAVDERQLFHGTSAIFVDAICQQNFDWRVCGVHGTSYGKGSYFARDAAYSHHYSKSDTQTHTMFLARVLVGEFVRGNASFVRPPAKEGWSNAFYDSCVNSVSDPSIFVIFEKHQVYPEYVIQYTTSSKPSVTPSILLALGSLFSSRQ

[1] = tested on: MDA-MB-436 breast cancer subcutaneous xenograft tumor model; assay: In vivo pharmacodynamic study of compound 2 in MDA-MB-436 subcutaneous xenograft tumor model; conditions: oral once daily, 30 days
Method: Experimental process: Twenty-four female NOD/SCID mice were used in the experiment. […] All groups were subjected to oral administration once daily. Meanwhile, the mice were weighed every 2 days, and the length and width of the tumors were measured with a vernier caliper. After 30 days of administration, the tumor-bearing mice were anesthetized and sacrificed. The tumor tissues were dissected, weighed, and photographed, and the tumor growth inhibition rates were calculated.

| Compound | IC50 (PARP-5A) | IC50 (PARP-7) | IC50 (PARP-12) | tumor growth inhibition rate ([1]; 1 mg/kg) | tumor growth inhibition rate ([1]; 3 mg/kg) | tumor inhibitory effect compared with the reference drug Olaparib 100 mg/kg group (in words) ([1]; 3 mg/kg) |
| --- | --- | --- | --- | --- | --- | --- |
| CNC(=O)c1ccc(N2CCN(C[C@H]3CCc4nc(C)c(=O)[nH]c4C3)CC2)c(F)n1 [Example 45, (S)-6-Fluoro-N-methyl-5-(4-((2-methyl-3-oxo-3,4,5,6,7,8-hexahydroquinoxaline-6-yl)methyl)piperazin-1-yl)picolinamide] | 1930 nM | 5990 nM | 862 nM |  |  |  |
| CCc1cc2c([nH]c1=O)CC(CN1CCN(c3ccc(C(=O)NC)nc3F)CC1)OC2 (stereo not drawn) [Compound 2, 5-(4-((3-Ethyl-2-oxo-1,5,7,8-tetrahydro-2H-pyrano[4,3-b]pyridin-7-yl)methyl)piperazin-1-yl)-6-fluoro-N-methyl picolinamide] | 975 nM | > 10000 nM | 1990 nM | 92.61% | 95.74% | significantly superior |
